Laboratory results taken from ChEMBL document CHEMBL1127385, “Synthesis and diuretic activity of alkyl- and arylguanidine analogs of N,N'-dicyclohexyl-4-morpholinecarboxamidine in rats and dogs” (J Med Chem, 1994).
One block for each molecule: values may come before it.

Tests used:
Rattus norvegicus [1] = assay: Total electrolytic excretion of chlorine in urine of rats after peroral administration of 31.6 uM/Kg of drug; type: ADME, organism-based; details: in vivo, po
Rattus norvegicus [2] = assay: Total electrolytic excretion of chlorine in urine of rats after peroral administration of 316 uM/Kg of drug; type: ADME, organism-based; details: in vivo, po
Rattus norvegicus [3] = assay: Total electrolytic excretion of potassium in urine of rats after peroral administration of 94.9 uM/Kg of drug; type: ADME, organism-based; details: in vivo, po
Rattus norvegicus [4] = assay: Total electrolytic excretion of potassium in urine of rats after peroral administration of 31.6 uM/Kg of drug; type: ADME, organism-based; details: in vivo, po
Rattus norvegicus [5] = assay: Total electrolytic excretion of potassium in urine of rats after peroral administration of 316 uM/Kg of drug; type: ADME, organism-based; details: in vivo, po
Rattus norvegicus [6] = assay: Total electrolytic excretion of sodium in urine of rats after peroral administration of 94.9 uM/Kg of drug; type: ADME, organism-based; details: in vivo, po
Rattus norvegicus [7] = assay: Tested for the diuretic activity by measuring the urinary volume after peroral administering 94.9 uM/Kg of drug in rats; type: ADME, organism-based, Urine; details: in vivo, po
Rattus norvegicus [8] = assay: Tested for the diuretic activity by measuring the urinary volume after peroral administering 31.6 uM/Kg of drug in rats; type: ADME, organism-based, Urine; details: in vivo, po
Rattus norvegicus [9] = assay: Tested for the diuretic activity by measuring the urinary volume after peroral administering 316 uM/Kg of drug in rats; type: ADME, organism-based, Urine; details: in vivo, po
Rattus norvegicus [10] = assay: Total electrolytic excretion of sodium in urine of rats after peroral administration of 31.6 uM/Kg of drug; type: ADME, organism-based; details: in vivo, po
Rattus norvegicus [11] = assay: Total electrolytic excretion of sodium in urine of rats after peroral administration of 316 uM/Kg of drug; type: ADME, organism-based; details: in vivo, po
Rattus norvegicus [12] = assay: Ratio of Total electrolytic excretion of sodium and potassium in urine of rats after peroral administration of 31.6 uM/Kg of drug; type: ADME, organism-based; details: in vivo, po
Rattus norvegicus [13] = assay: Ratio of Total electrolytic excretion of sodium and potassium in urine of rats after peroral administration of 316 uM/Kg of drug; type: ADME, organism-based; details: in vivo, po
Rattus norvegicus [14] = assay: Ratio of Total electrolytic excretion of sodium and potassium in urine of rats after peroral administration of 94.9 uM/Kg of drug; type: ADME, organism-based; details: in vivo, po
Rattus norvegicus [15] = assay: Total electrolytic excretion of chlorine in urine of rats after peroral administration of 94.9 uM/Kg of drug; type: ADME, organism-based; details: in vivo, po
Rattus norvegicus [16] = assay: Total electrolytic excretion of chlorine in urine of rats after peroral administration of 83.8 uM/Kg of drug; type: ADME, organism-based; details: in vivo, po
Rattus norvegicus [17] = assay: Total electrolytic excretion of chlorine in urine of rats after peroral administration of 27.9 uM/Kg of drug; type: ADME, organism-based; details: in vivo, po
Rattus norvegicus [18] = assay: Total electrolytic excretion of chlorine in urine of rats after peroral administration of 279 uM/Kg of drug; type: ADME, organism-based; details: in vivo, po
Rattus norvegicus [19] = assay: Total electrolytic excretion of potassium in urine of rats after peroral administration of 27.9 uM/Kg of drug; type: ADME, organism-based; details: in vivo, po
Rattus norvegicus [20] = assay: Total electrolytic excretion of potassium in urine of rats after peroral administration of 83.8 uM/Kg of drug; type: ADME, organism-based; details: in vivo, po
Rattus norvegicus [21] = assay: Total electrolytic excretion of potassium in urine of rats after peroral administration of 279 uM/Kg of drug; type: ADME, organism-based; details: in vivo, po
Rattus norvegicus [22] = assay: Tested for the diuretic activity by measuring the urinary volume after peroral administering 83.8 uM/Kg of drug in rats; type: ADME, organism-based, Urine; details: in vivo, po
Rattus norvegicus [23] = assay: Total electrolytic excretion of sodium in urine of rats after peroral administration of 27.9 uM/Kg of drug; type: ADME, organism-based; details: in vivo, po
Rattus norvegicus [24] = assay: Total electrolytic excretion of sodium in urine of rats after peroral administration of 279 uM/Kg of drug; type: ADME, organism-based; details: in vivo, po
Rattus norvegicus [25] = assay: Total electrolytic excretion of sodium in urine of rats after peroral administration of 83.8 uM/Kg of drug; type: ADME, organism-based; details: in vivo, po
Rattus norvegicus [26] = assay: Tested for the diuretic activity by measuring the urinary volume after peroral administering 27.9 uM/Kg of drug in rats; type: ADME, organism-based, Urine; details: in vivo, po
Rattus norvegicus [27] = assay: Tested for the diuretic activity by measuring the urinary volume after peroral administering 279 uM/Kg of drug in rats; type: ADME, organism-based, Urine; details: in vivo, po
Rattus norvegicus [28] = assay: Ratio of Total electrolytic excretion of sodium and potassium in urine of rats after peroral administration of 279 uM/Kg of drug; type: ADME, organism-based; details: in vivo, po
Rattus norvegicus [29] = assay: Ratio of Total electrolytic excretion of sodium and potassium in urine of rats after peroral administration of 83.8 uM/Kg of drug; type: ADME, organism-based; details: in vivo, po
Rattus norvegicus [30] = assay: Ratio of Total electrolytic excretion of sodium and potassium in urine of rats after peroral administration of 27.9 uM/Kg of drug; type: ADME, organism-based; details: in vivo, po
Canis familiaris [31] = assay: Total electrolytic excretion of potassium in urine of dogs after intravenous administration of 11.9 uM/Kg of drug; type: ADME, organism-based, Canis lupus familiaris; details: dog, in vivo
Rattus norvegicus [32] = assay: Total electrolytic excretion of sodium in urine of rats after peroral administration of 239 uM/Kg of drug; type: ADME, organism-based; details: in vivo, po
Rattus norvegicus [33] = assay: Total electrolytic excretion of potassium in urine of rats after peroral administration of 71.6 uM/Kg of drug; type: ADME, organism-based; details: in vivo, po
Rattus norvegicus [34] = assay: Total electrolytic excretion of chlorine in urine of rats after peroral administration of 23.9 uM/Kg of drug; type: ADME, organism-based; details: in vivo, po
Rattus norvegicus [35] = assay: Total electrolytic excretion of chlorine in urine of rats after peroral administration of 239 uM/Kg of drug; type: ADME, organism-based; details: in vivo, po
Canis familiaris [36] = assay: Total electrolytic excretion of chlorine in urine of dogs after intravenous administration of 11.9 uM/Kg of drug; type: ADME, organism-based, Canis lupus familiaris; details: dog, in vivo
Canis familiaris [37] = assay: Total electrolytic excretion of sodium in urine of dogs after intravenous administration of 11.9 uM/Kg of drug; type: ADME, organism-based, Canis lupus familiaris; details: dog, in vivo
Rattus norvegicus [38] = assay: Total electrolytic excretion of potassium in urine of rats after peroral administration of 23.9 uM/Kg of drug; type: ADME, organism-based; details: in vivo, po
Rattus norvegicus [39] = assay: Total electrolytic excretion of potassium in urine of rats after peroral administration of 239 uM/Kg of drug; type: ADME, organism-based; details: in vivo, po
Rattus norvegicus [40] = assay: Total electrolytic excretion of chlorine in urine of rats after peroral administration of 71.6 uM/Kg of drug; type: ADME, organism-based; details: in vivo, po
Rattus norvegicus [41] = assay: Tested for the diuretic activity by measuring the urinary volume after peroral administering 71.6 uM/Kg of drug in rats; type: ADME, organism-based, Urine; details: in vivo, po
Rattus norvegicus [42] = assay: Total electrolytic excretion of sodium in urine of rats after peroral administration of 71.6 uM/Kg of drug; type: ADME, organism-based; details: in vivo, po
Rattus norvegicus [43] = assay: Tested for the diuretic activity by measuring the urinary volume after peroral administering 23.9 uM/Kg of drug in rats; type: ADME, organism-based, Urine; details: in vivo, po
Rattus norvegicus [44] = assay: Tested for the diuretic activity by measuring the urinary volume after peroral administering 239 uM/Kg of drug in rats; type: ADME, organism-based, Urine; details: in vivo, po
Canis familiaris [45] = assay: Tested for the diuretic activity by measuring the urinary volume after intravenous administering 11.9 uM/Kg of drug in dogs; type: ADME, organism-based, Canis lupus familiaris, Urine; details: dog, in vivo
Rattus norvegicus [46] = assay: Total electrolytic excretion of sodium in urine of rats after peroral administration of 23.9 uM/Kg of drug; type: ADME, organism-based; details: in vivo, po
Rattus norvegicus [47] = assay: Ratio of Total electrolytic excretion of sodium and potassium in urine of rats after peroral administration of 23.9 uM/Kg of drug; type: ADME, organism-based; details: in vivo, po
Rattus norvegicus [48] = assay: Ratio of Total electrolytic excretion of sodium and potassium in urine of rats after peroral administration of 239 uM/Kg of drug; type: ADME, organism-based; details: in vivo, po
Rattus norvegicus [49] = assay: Ratio of Total electrolytic excretion of sodium and potassium in urine of rats after intravenous administration of 11.9 uM/Kg of drug; type: ADME, organism-based; details: in vivo
Rattus norvegicus [50] = assay: Ratio of Total electrolytic excretion of sodium and potassium in urine of rats after peroral administration of 71.6 uM/Kg of drug; type: ADME, organism-based; details: in vivo, po

Excretion Cl- (Rattus norvegicus [1]): 0.65 m equiv
Excretion Cl- (Rattus norvegicus [2]): 1.4 m equiv
Excretion K+ (Rattus norvegicus [3]): 0.26 m equiv
Excretion K+ (Rattus norvegicus [4]): 0.28 m equiv
Excretion K+ (Rattus norvegicus [5]): 0.32 m equiv
Excretion Na+ (Rattus norvegicus [6]): 0.84 m equiv
V (Rattus norvegicus [7]): 6.3 mL
V (Rattus norvegicus [8]): 3.8 mL
V (Rattus norvegicus [9]): 8.9 mL
Excretion Na+ (Rattus norvegicus [10]): 0.62 m equiv
Excretion Na+ (Rattus norvegicus [11]): 1.32 m equiv
Ratio (Rattus norvegicus [12]): 2.2
Ratio (Rattus norvegicus [13]): 4.1
Ratio (Rattus norvegicus [14]): 3.2
Excretion Cl- (Rattus norvegicus [15]): 0.92 m equiv
Structure (SMILES): C1CCC(N/C(=N/C2CCCC2)N2CCOCC2)CC1

Excretion Cl- (Rattus norvegicus [16]): 1.06 m equiv
Excretion Cl- (Rattus norvegicus [17]): 0.84 m equiv
Excretion Cl- (Rattus norvegicus [18]): 1.46 m equiv
Excretion K+ (Rattus norvegicus [19]): 0.24 m equiv
Excretion K+ (Rattus norvegicus [20]): 0.29 m equiv
Excretion K+ (Rattus norvegicus [21]): 0.31 m equiv
V (Rattus norvegicus [22]): 7.7 mL
Excretion Na+ (Rattus norvegicus [23]): 0.72 m equiv
Excretion Na+ (Rattus norvegicus [24]): 1.45 m equiv
Excretion Na+ (Rattus norvegicus [25]): 1.01 m equiv
V (Rattus norvegicus [26]): 6.2 mL
V (Rattus norvegicus [27]): 11.2 mL
Ratio (Rattus norvegicus [28]): 4.7
Ratio (Rattus norvegicus [29]): 3.5
Ratio (Rattus norvegicus [30]): 3
Structure (SMILES): Clc1ccccc1N/C(=N/C1CCCCC1)N1CCOCC1

Excretion K+ (Canis familiaris [31]): 1.1 m equiv
Excretion Na+ (Rattus norvegicus [32]): 1.92 m equiv
Excretion K+ (Rattus norvegicus [33]): 0.32 m equiv
Excretion Cl- (Rattus norvegicus [34]): 1.17 m equiv
Excretion Cl- (Rattus norvegicus [35]): 1.69 m equiv
Excretion Cl- (Canis familiaris [36]): 5.7 m equiv
Excretion Na+ (Canis familiaris [37]): 8.5 m equiv
Excretion K+ (Rattus norvegicus [38]): 0.27 m equiv
Excretion K+ (Rattus norvegicus [39]): 0.33 m equiv
Excretion Cl- (Rattus norvegicus [40]): 1.45 m equiv
V (Rattus norvegicus [41]): 10.6 mL
Excretion Na+ (Rattus norvegicus [42]): 1.41 m equiv
V (Rattus norvegicus [43]): 7.4 mL
V (Rattus norvegicus [44]): 13.2 mL
V (Canis familiaris [45]): 57 mL
Excretion Na+ (Rattus norvegicus [46]): 1.1 m equiv
Ratio (Rattus norvegicus [47]): 4.1 [Na+]/[K+]
Ratio (Rattus norvegicus [48]): 5.8 [Na+]/[K+]
Ratio (Rattus norvegicus [49]): 7.4 [Na+]/[K+]
Ratio (Rattus norvegicus [50]): 4.4 [Na+]/[K+]
Structure (SMILES): Clc1ccc(N/C(=N/C2CCCCC2)N2CCOCC2)cc1Cl
